# Measurements reported in PMC9147192, “Small Molecule Arranged Thermal Proximity Coaggregation (smarTPCA)—A Novel Approach to Characterize Protein–Protein Interactions in Living Cells by Similar Isothermal Dose–Responses” (International Journal of Molecular Sciences, 2022).
# pEC50: −log10 of the molar value. Where “and” joins values, the source holds several entries; their conditions need not be identical. Identical values can stand only once.
# Key:
# [1] = tested on: MAPKAPK2p; experiment: CETSA in living HL-60 cells, immunoblot; format: cell-based, Homo sapiens
# Procedure: (§1) First, we conducted CETSA experiments according to Jafari et al.. […] Subsequent SDS-PAGE and immunoblotting were performed according to optimized conditions allowing for parallel detection of MAPK14, MAPKAPK2, MAPKAPK3, and GSK-3α (Supplementary Figure S1).
# (§2) HL-60 cells (ATCC No. CCL-240) were expanded to about […] in 80 mL cell culture medium (RPMI-1640 supplemented with 10% (v/v) FBS, 1% (v/v) penicillin-streptomycin and 1% (v/v) L-glutamine solution) and divided into four aliquots (20 mL each, 25 million cells per flask). […] The same volume of DMSO was added to the remaining aliquot serving as the vehicle (DMSO) control. After incubation (1 h, 37 °C, 5% CO2, in cell culture CO2 incubator), the cell suspensions were transferred into 50 mL conical tubes, cell number and viability were determined, and after centrifugation (300 relative centrifugal force (rcf), 3 min, room temperature (r.t.)), the supernatants were completely removed and discarded. The cells were washed using 20 mL Dulbecco’s phosphate-buffered saline (PBS), respectively, by resuspension and centrifugation (300 rcf, 3 min, r.t.). After the complete removal of the supernatants, the cells were transferred into pre-weighed 2 mL Eppendorf tubes using 0.5 mL PBS (r.t.), respectively, for resuspending. After centrifugation (300 rcf, 3 min, r.t.) and removing as much as possible of the supernatants, the cell wet weights were determined.
# (§3) The suspensions were shortly centrifuged (1 s or less) using a benchtop centrifuge that was equipped with an inset for PCR tubes to release trapped air and to achieve an even liquid level without pelleting the cells. The 100 µL cell suspensions were then temperature treated by a 7 min pre-incubation at r.t., a 3 min incubation at the following different temperatures in the PCR cycler (DNA Engine Tetrad 2, lid temperature 70 °C, gradient block 1: 36–55 °C, gradient block 2: 48–67 °C), and a 3 min post-incubation at r.t. in a metal heating block for uniform heat dissipation.
# The cells were lysed by four freeze/thaw cycles consisting of thawing the samples (in a heat block set to 25 °C and shaking at 1250 rpm) accompanied by mixing them several times by inversion and then shock freezing them again in liquid nitrogen. […]
# For each sample set comprising either ten temperature range samples or ten compound concentration range samples, the same volume of the cell extracts containing the fraction of soluble, non-denatured proteins was used for further analysis. This volume was determined using the two lowest temperature samples (36.5 and 41.2 °C) per temperature range sample set so that they contained an average of 5 µg total protein (e.g., 2.78 µL for all temperature range samples of a sample set whose two lowest temperature samples contain an average of 1.8 mg/mL protein). […]
# [2] = target: NUDT1 (Homo sapiens, UniProt P36639); experiment: TPP-CCR in living HL-60 cells
# [3] = target: STX4 (Homo sapiens, UniProt Q12846); experiment: TPP-CCR in living HL-60 cells
# [4] = target: MAPKAPK2 (Homo sapiens, UniProt P49137); experiment: TPP-CCR in living HL-60 cells; settings: […] °C, TMT-MS
# [5] = target: MTMR1 (Homo sapiens, UniProt Q13613); experiment: TPP-CCR in living HL-60 cells
# [6] = target: MAPK14 (Homo sapiens, UniProt Q16539); experiment: CETSA in living HL-60 cells, immunoblot; format: cell-based
# Procedure: as §1, §2, §3
# The cells were lysed by four freeze/thaw cycles consisting of thawing the samples (in a heat block set to 25 °C and shaking at 1250 rpm) accompanied by mixing them several times by inversion and then shock freezing them again in liquid nitrogen. The resulting lysates were kept cold (on ice or 4 °C) from then on. After centrifugation (20,000 rcf, 30 min, 4 °C) to pellet the cell debris together with precipitated and aggregated proteins, the supernatants were recovered and, after determining the total protein concentration (Pierce 660 nm Protein Assay, BSA as standard), the resulting cell extracts containing the fraction of soluble, non-denatured proteins were shock frozen in liquid nitrogen and stored at −80 °C.
# For each sample set comprising either ten temperature range samples or ten compound concentration range samples, the same volume of the cell extracts containing the fraction of soluble, non-denatured proteins was used for further analysis. This volume was determined using the two lowest temperature samples (36.5 and 41.2 °C) per temperature range sample set so that they contained an average of 5 µg total protein (e.g., 2.78 µL for all temperature range samples of a sample set whose two lowest temperature samples contain an average of 1.8 mg/mL protein). For the compound concentration range experiments, all samples of a set were used for averaging.
# [7] = target: NAPG (Homo sapiens, UniProt Q99747); experiment: TPP-CCR in living HL-60 cells
# [8] = target: C14orf166 (Homo sapiens, UniProt Q9Y224); settings: living HL-60 cells, […] °C, TMT-MS
# From the text: Therefore, we performed TPP with compound concentration range (TPP-CCR) experiments according to published procedures. In brief, after preparing tryptic peptides from the non-denatured protein fractions (used for immunoblotting in the previous sections) applying the SP3 method, the peptides were labeled using TMT10plex, coding for inhibitor concentration, and the samples belonging to a TMT set were combined, offline high-pH fractionated, and analyzed by MS.
# HL-60 cells were expanded as described above for CETSA and TPP-TR to 1.25 million cells per milliliter. […] A number of 2.5 million cells in 2 mL of medium were added to each tube and incubated (1 h, 37 °C). […]
# For each sample set comprising ten compound concentration range samples, a same volume of the cell extracts containing the fraction of soluble, non-denatured proteins, corresponding to an average of 5 µg total protein, was used for further analysis. The calculated volume was respectively transferred into PCR tubes of a tube strip and supplemented with SDS sample buffer without DTT and bromophenol blue (final concentrations: 7.5% glycerol, 3% SDS, 37.5 mM Tris/HCl pH 7.0) and ddH2O to a final volume of 10 µL, respectively. […]
# [9] = living HL-60 cells, 20 µM inhibitor
# [10] = living HL-60 cells, […] °C, TMT-MS
# MAPK14, sequence (Q16539 whole entry): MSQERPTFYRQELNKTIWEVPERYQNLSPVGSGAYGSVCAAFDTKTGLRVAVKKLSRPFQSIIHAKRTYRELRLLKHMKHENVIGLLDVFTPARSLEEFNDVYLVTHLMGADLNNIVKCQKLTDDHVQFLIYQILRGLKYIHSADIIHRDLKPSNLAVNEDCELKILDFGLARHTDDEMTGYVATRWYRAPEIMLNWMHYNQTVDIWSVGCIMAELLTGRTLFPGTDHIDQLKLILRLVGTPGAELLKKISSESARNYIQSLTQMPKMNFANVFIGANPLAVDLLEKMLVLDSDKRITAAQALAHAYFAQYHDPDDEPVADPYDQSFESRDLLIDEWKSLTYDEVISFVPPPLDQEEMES
# STX4, sequence (Q12846 whole entry): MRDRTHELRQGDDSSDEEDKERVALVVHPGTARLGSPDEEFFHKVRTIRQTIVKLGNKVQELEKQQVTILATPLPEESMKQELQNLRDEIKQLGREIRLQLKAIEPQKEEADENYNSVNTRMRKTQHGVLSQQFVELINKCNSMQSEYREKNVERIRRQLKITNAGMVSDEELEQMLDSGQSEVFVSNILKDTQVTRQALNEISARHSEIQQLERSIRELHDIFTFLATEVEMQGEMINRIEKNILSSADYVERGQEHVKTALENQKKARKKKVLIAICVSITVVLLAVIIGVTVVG
# NAPG, sequence (Q99747 whole entry): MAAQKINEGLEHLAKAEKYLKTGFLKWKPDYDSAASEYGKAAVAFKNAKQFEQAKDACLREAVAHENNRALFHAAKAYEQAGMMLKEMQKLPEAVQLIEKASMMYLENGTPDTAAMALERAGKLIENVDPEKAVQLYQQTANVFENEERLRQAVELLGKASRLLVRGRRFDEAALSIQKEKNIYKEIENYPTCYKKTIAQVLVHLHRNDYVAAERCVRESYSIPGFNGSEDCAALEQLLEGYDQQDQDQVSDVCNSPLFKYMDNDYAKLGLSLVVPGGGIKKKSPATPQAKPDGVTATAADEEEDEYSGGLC
# C14orf166, sequence (Q9Y224 whole entry): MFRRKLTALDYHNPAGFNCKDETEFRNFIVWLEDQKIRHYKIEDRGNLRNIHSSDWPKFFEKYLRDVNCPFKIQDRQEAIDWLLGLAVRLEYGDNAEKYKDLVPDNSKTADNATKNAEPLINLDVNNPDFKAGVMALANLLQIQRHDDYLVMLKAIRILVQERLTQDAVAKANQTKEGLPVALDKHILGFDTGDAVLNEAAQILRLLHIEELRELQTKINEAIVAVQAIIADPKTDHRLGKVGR
# MAPKAPK2, sequence (P49137 whole entry): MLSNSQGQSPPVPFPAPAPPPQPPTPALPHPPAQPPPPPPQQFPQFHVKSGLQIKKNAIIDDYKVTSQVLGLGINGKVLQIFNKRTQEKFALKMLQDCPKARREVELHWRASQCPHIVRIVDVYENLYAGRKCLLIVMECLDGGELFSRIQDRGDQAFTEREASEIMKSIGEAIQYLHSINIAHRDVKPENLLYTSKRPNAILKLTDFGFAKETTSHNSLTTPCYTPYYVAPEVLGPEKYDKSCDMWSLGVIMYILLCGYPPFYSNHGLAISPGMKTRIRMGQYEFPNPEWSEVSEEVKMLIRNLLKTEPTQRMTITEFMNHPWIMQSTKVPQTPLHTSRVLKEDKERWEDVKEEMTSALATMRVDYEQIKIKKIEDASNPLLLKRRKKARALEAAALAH
# MAPKAPK2, sequence (Q16539 2-360 partner limits assumed): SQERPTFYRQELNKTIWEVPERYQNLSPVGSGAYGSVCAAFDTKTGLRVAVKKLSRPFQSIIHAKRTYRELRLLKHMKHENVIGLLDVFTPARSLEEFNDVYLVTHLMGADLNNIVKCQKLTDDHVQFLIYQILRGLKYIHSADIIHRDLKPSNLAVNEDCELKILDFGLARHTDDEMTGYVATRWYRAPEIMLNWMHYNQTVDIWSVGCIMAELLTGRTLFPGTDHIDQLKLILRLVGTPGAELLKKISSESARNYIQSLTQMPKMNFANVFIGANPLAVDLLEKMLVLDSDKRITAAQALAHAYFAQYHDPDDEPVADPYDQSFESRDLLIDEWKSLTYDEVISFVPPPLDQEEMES
smiles,measurement,setting,value
Cc1cnc(Nc2ccc(F)cc2Cl)nc1-c1c[nH]c(C(=O)N[C@H](CO)c2cccc(Cl)c2)c1 [ERK 11e],Tm,"[1]; MAPKAPK2p, living cells",47.18 °C
same,ΔTm to DMSO,"[1]; MAPKAPK2p, living cells",-1.07 °C
same,Tm (MAPKAPK2p),[1]; [9],47.18 °C
same,ΔTm to DMSO (MAPKAPK2p),[1]; [9],−1.07 °C
Cn1c(NC[C@@H](N)Cc2ccccc2)nc(-c2ccncc2)c(-c2ccc3ccccc3c2)c1=O [AMG-548],pEC50,[2],5.64
same,Hill slope (NUDT1),[2]; [10],0.77
same,pEC50,[3],6.88
same,Hill slope (STX4),[3]; [10],0.27
same,Hill slope (MAPKAPK2),[4],0.72
same,pEC50,[5],6.98
same,Hill slope (MTMR1),[5]; [10],0.38
same,ΔTm at 20 µM,"[6]; HL-60, living HL-60 cells, 20 µM inhibitor, read-out: ΔTm to DMSO (MAPK14)",14.8 °C
same,Tm,"[6]; MAPK14, living cells",60.58 °C
same,ΔTm to DMSO,"[6]; MAPK14, living cells",14.76 °C
same,Tm (MAPK14),[6]; [9],60.6 ± 0.5 °C and 60.58 °C
same,ΔTm to DMSO (MAPK14),"[6]; living HL-60 cells, 20 µM inhibitor, 20 µM",14.76 °C
C[S+]([O-])c1ccc(-c2nc(-c3ccncc3)c(-c3ccc(F)cc3)[nH]2)cc1 (stereo not shown) [SB203580],pEC50,[7],8.71
same,Hill slope (NAPG),[7]; [10],0.24
same,Hill slope (C14orf166),[8],0.33
